Source: publication PMC2819846 (Mutation research, 2008)

Assays:
Format in all cases: cell-based
Salmonella TA100 = experiment: Salmonella plate-incorporation mutagenicity assay, strain TA100
Salmonella TA98 = experiment: Salmonella plate-incorporation mutagenicity assay, strain TA98, with S9 mix
Salmonella TA104 = experiment: Salmonella plate-incorporation mutagenicity assay, strain TA104, with S9 mix; settings: for Mutagenic potency, Revertants/µg ± S.E., TA104: plate-incorporation, +S9
[1] = TA100 +S9, Test 1, 2 µg/plate, zero-dose 99/110/110
[2] = TA100 +S9, Test 1, 5 µg/plate, zero-dose 99/110/110
[3] = TA100 +S9, Test 1, 10 µg/plate, zero-dose 99/110/110
[4] = TA100 +S9, Test 1, 20 µg/plate, zero-dose 99/110/110
[5] = TA100 +S9, Test 1, 40 µg/plate, zero-dose 99/110/110
[6] = TA100 +S9, Test 1, 80 µg/plate, zero-dose 99/110/110
[7] = TA100 +S9, Test 2, 5 µg/plate, zero-dose 84/78/80
[8] = TA100 +S9, Test 2, 10 µg/plate, zero-dose 84/78/80
[9] = TA100 +S9, Test 3, 5 µg/plate, zero-dose 127/118/125
[10] = TA100 +S9, Test 3, 10 µg/plate, zero-dose 127/118/125
[11] = TA98 +S9, Test 1, 2 µg/plate, zero-dose 33/40/39
[12] = TA98 +S9, Test 1, 5 µg/plate, zero-dose 33/40/39
[13] = TA98 +S9, Test 1, 10 µg/plate, zero-dose 33/40/39
[14] = TA98 +S9, Test 1, 20 µg/plate, zero-dose 33/40/39
[15] = TA98 +S9, Test 1, 40 µg/plate, zero-dose 33/40/39
[16] = TA98 +S9, Test 1, 80 µg/plate, zero-dose 33/40/39
[17] = TA98 +S9, Test 2, 5 µg/plate, zero-dose 43/41/30
[18] = TA98 +S9, Test 2, 10 µg/plate, zero-dose 43/41/30
[19] = TA98 +S9, Test 3, 5 µg/plate, zero-dose 49/50/50
[20] = TA98 +S9, Test 3, 10 µg/plate, zero-dose 49/50/50
[21] = TA104 +S9, Test 2, 5 µg/plate, zero-dose 276/260/270
[22] = TA104 +S9, Test 2, 10 µg/plate, zero-dose 276/260/270
[23] = TA104 +S9, Test 3, 5 µg/plate, zero-dose 402/395/336
[24] = TA104 +S9, Test 3, 10 µg/plate, zero-dose 402/395/336
[25] = TA104 +S9, Test 2, 1 µg/plate, zero-dose 276/260/270
[26] = TA104 +S9, Test 2, 2 µg/plate, zero-dose 276/260/270
[27] = TA104 +S9, Test 3, 1 µg/plate, zero-dose 402/395/336
[28] = TA104 +S9, Test 3, 2 µg/plate, zero-dose 402/395/336
[29] = TA104 +S9, Test 4, 1 µg/plate, zero-dose 482/455/462

## O[C@@H]1c2ccccc2-c2c(ccc3ccsc23)[C@H]1O (racemic) [P[4,3-b]T 6,7-diol, (±)-trans-6,7-Dihydrophenanthro[4,3-b]thiophene 6,7-diol]
Salmonella TA100; [1]
  Rev/plate: 101 rev/plate
Salmonella TA100; [2]
  Rev/plate: 128 rev/plate
Salmonella TA100; [3]
  Rev/plate: 126 rev/plate
Salmonella TA100; [4]
  Rev/plate: 127 rev/plate
Salmonella TA100; [5]
  Rev/plate: 132 rev/plate
Salmonella TA100; [6]
  Rev/plate: 137 rev/plate
Salmonella TA100; [7]
  Rev/plate: 97/98
Salmonella TA100; [8]
  Rev/plate: 79/88
Salmonella TA100; TA100 +S9, Test 2, 20 µg/plate, zero-dose 84/78/80
  Rev/plate: 94/113
Salmonella TA100; TA100 +S9, Test 2, 40 µg/plate, zero-dose 84/78/80
  Rev/plate: 119/81
Salmonella TA100; [9]
  Rev/plate: 125/135
Salmonella TA100; [10]
  Rev/plate: 132/119
Salmonella TA100; TA100 +S9, Test 3, 20 µg/plate, zero-dose 127/118/125
  Rev/plate: 134/155
Salmonella TA100; TA100 +S9, Test 3, 40 µg/plate, zero-dose 127/118/125
  Rev/plate: 136/128
Salmonella TA100; plate-incorporation, +S9
  Mutagenic potency, Revertants/µg ± S.E., TA100: 0.4 ± 0.1 rev/µg
Salmonella TA98; [11]
  Rev/plate: 34 rev/plate
Salmonella TA98; [12]
  Rev/plate: 35 rev/plate
Salmonella TA98; [13]
  Rev/plate: 47 rev/plate
Salmonella TA98; [14]
  Rev/plate: 52 rev/plate
Salmonella TA98; [15]
  Rev/plate: 39 rev/plate
Salmonella TA98; [16]
  Rev/plate: 36 rev/plate
Salmonella TA98; [17]
  Rev/plate: 28/34
Salmonella TA98; [18]
  Rev/plate: 27/28
Salmonella TA98; TA98 +S9, Test 2, 20 µg/plate, zero-dose 43/41/30
  Rev/plate: 38/27
Salmonella TA98; TA98 +S9, Test 2, 40 µg/plate, zero-dose 43/41/30
  Rev/plate: 33/27
Salmonella TA98; [19]
  Rev/plate: 50/53
Salmonella TA98; [20]
  Rev/plate: 43/47
Salmonella TA98; TA98 +S9, Test 3, 20 µg/plate, zero-dose 49/50/50
  Rev/plate: 52/47
Salmonella TA98; TA98 +S9, Test 3, 40 µg/plate, zero-dose 49/50/50
  Rev/plate: 48/50
Salmonella TA98; plate-incorporation, +S9
  Mutagenic potency, Revertants/µg ± S.E., TA98: −0.2 ± 0.1 rev/µg
Salmonella TA104; [21]
  Rev/plate: 330/353
Salmonella TA104; [22]
  Rev/plate: 391/347
Salmonella TA104; TA104 +S9, Test 2, 20 µg/plate, zero-dose 276/260/270
  Rev/plate: 348/340
Salmonella TA104; TA104 +S9, Test 2, 40 µg/plate, zero-dose 276/260/270
  Rev/plate: 305/354
Salmonella TA104; [23]
  Rev/plate: 438/407
Salmonella TA104; [24]
  Rev/plate: 442/462
Salmonella TA104; TA104 +S9, Test 3, 20 µg/plate, zero-dose 402/395/336
  Rev/plate: 423/445
Salmonella TA104; TA104 +S9, Test 3, 40 µg/plate, zero-dose 402/395/336
  Rev/plate: 365/373
Salmonella TA104
  Mutagenic potency, Revertants/µg ± S.E., TA104: 9.2 ± 1.3 rev/µg

## Nc1ccc2cc3ccccc3cc2c1 [2-aminoanthracene, reference compound]
Salmonella TA104; TA104 +S9, Test 1, 0.1 µg/plate, zero-dose 379/400/370
  Rev/plate: 469/478
Salmonella TA104; TA104 +S9, Test 1, 0.25 µg/plate, zero-dose 379/400/370
  Rev/plate: 650/632
Salmonella TA104; TA104 +S9, Test 1, 0.5 µg/plate, zero-dose 379/400/370
  Rev/plate: 849/818
Salmonella TA104; TA104 +S9, Test 1, 1 µg/plate, zero-dose 379/400/370
  Rev/plate: 1004/998
Salmonella TA104; TA104 +S9, Test 1, 2 µg/plate, zero-dose 379/400/370
  Rev/plate: 1335/1432
Salmonella TA104; TA104 +S9, Test 2, 0.1 µg/plate, zero-dose 276/260/270
  Rev/plate: 366/337
Salmonella TA104; TA104 +S9, Test 2, 0.25 µg/plate, zero-dose 276/260/270
  Rev/plate: 521/530
Salmonella TA104; TA104 +S9, Test 2, 0.5 µg/plate, zero-dose 276/260/270
  Rev/plate: 764/666
Salmonella TA104; [25]
  Rev/plate: 983/956
Salmonella TA104; [26]
  Rev/plate: 1321/1392
Salmonella TA104; TA104 +S9, Test 3, 0.1 µg/plate, zero-dose 402/395/336
  Rev/plate: 444/419
Salmonella TA104; TA104 +S9, Test 3, 0.25 µg/plate, zero-dose 402/395/336
  Rev/plate: 570/588
Salmonella TA104; TA104 +S9, Test 3, 0.5 µg/plate, zero-dose 402/395/336
  Rev/plate: 822/811
Salmonella TA104; [27]
  Rev/plate: 1079/1097
Salmonella TA104; [28]
  Rev/plate: 1434/1518
Salmonella TA104; TA104 +S9, Test 4, 0.1 µg/plate, zero-dose 482/455/462
  Rev/plate: 573/564
Salmonella TA104; TA104 +S9, Test 4, 0.25 µg/plate, zero-dose 482/455/462
  Rev/plate: 699/711
Salmonella TA104; TA104 +S9, Test 4, 0.5 µg/plate, zero-dose 482/455/462
  Rev/plate: 864/989
Salmonella TA104; [29]
  Rev/plate: 1185/1181

## c1ccc2c(c1)ccc1ccc3ccsc3c12 [P[4,3-b]T, Phenanthro[4,3-b]thiophene]
Salmonella TA100; [1]
  Rev/plate: 172 rev/plate
Salmonella TA100; [2]
  Rev/plate: 194 rev/plate
Salmonella TA100; [3]
  Rev/plate: 190 rev/plate
Salmonella TA100; [4]
  Rev/plate: 125 rev/plate
Salmonella TA100; [5]
  Rev/plate: 188 rev/plate
Salmonella TA100; [6]
  Rev/plate: 164 rev/plate
Salmonella TA100; TA100 +S9, Test 2, 1 µg/plate, zero-dose 84/78/80
  Rev/plate: 80/84
Salmonella TA100; TA100 +S9, Test 2, 2 µg/plate, zero-dose 84/78/80
  Rev/plate: 92/89
Salmonella TA100; [7]
  Rev/plate: 116/108
Salmonella TA100; [8]
  Rev/plate: 119/98
Salmonella TA100; TA100 +S9, Test 3, 1 µg/plate, zero-dose 127/118/125
  Rev/plate: 142/160
Salmonella TA100; TA100 +S9, Test 3, 2 µg/plate, zero-dose 127/118/125
  Rev/plate: 185/164
Salmonella TA100; [9]
  Rev/plate: 218/248
Salmonella TA100; [10]
  Rev/plate: 274/291
Salmonella TA100; TA100 +S9, Test 4, 1 µg/plate, zero-dose 112/140/115
  Rev/plate: 160/156
Salmonella TA100; TA100 +S9, Test 4, 2 µg/plate, zero-dose 112/140/115
  Rev/plate: 164/156
Salmonella TA100; TA100 +S9, Test 4, 5 µg/plate, zero-dose 112/140/115
  Rev/plate: 218/198
Salmonella TA100; TA100 +S9, Test 4, 10 µg/plate, zero-dose 112/140/115
  Rev/plate: 275/234
Salmonella TA100; plate-incorporation, +S9
  Mutagenic potency, Revertants/µg ± S.E., TA100: 12.8 ± 3.9 rev/µg
  Mutagenicity call TA100: (+) (Called mutagenic (+) based on showing reproducible, dose-related increases in rev/plate that reached or exceeded 2-fold relative to zero-dose controls)
Salmonella TA98; [11]
  Rev/plate: 61 rev/plate
Salmonella TA98; [12]
  Rev/plate: 137 rev/plate
Salmonella TA98; [13]
  Rev/plate: 141 rev/plate
Salmonella TA98; [14]
  Rev/plate: 146 rev/plate
Salmonella TA98; [15]
  Rev/plate: 158 rev/plate
Salmonella TA98; [16]
  Rev/plate: 105 rev/plate
Salmonella TA98; TA98 +S9, Test 2, 1 µg/plate, zero-dose 43/41/30
  Rev/plate: 39/49
Salmonella TA98; TA98 +S9, Test 2, 2 µg/plate, zero-dose 43/41/30
  Rev/plate: 41/33
Salmonella TA98; [17]
  Rev/plate: 97/77
Salmonella TA98; [18]
  Rev/plate: 110/79
Salmonella TA98; TA98 +S9, Test 3, 1 µg/plate, zero-dose 49/50/50
  Rev/plate: 93/74
Salmonella TA98; TA98 +S9, Test 3, 2 µg/plate, zero-dose 49/50/50
  Rev/plate: 98/77
Salmonella TA98; [19]
  Rev/plate: 162/166
Salmonella TA98; [20]
  Rev/plate: 194/213
Salmonella TA98; plate-incorporation, +S9
  Mutagenic potency, Revertants/µg ± S.E., TA98: 13.7 ± 3.3 rev/µg
  Mutagenicity call TA98: (+) (Called mutagenic (+) based on showing reproducible, dose-related increases in rev/plate that reached or exceeded 2-fold relative to zero-dose controls)
Salmonella TA104; [25]
  Rev/plate: 392/313
Salmonella TA104; [26]
  Rev/plate: 414/432
Salmonella TA104; [21]
  Rev/plate: 419/440
Salmonella TA104; [22]
  Rev/plate: 437/473
Salmonella TA104; [27]
  Rev/plate: 457/397
Salmonella TA104; [28]
  Rev/plate: 468/515
Salmonella TA104; [23]
  Rev/plate: 490/505
Salmonella TA104; [24]
  Rev/plate: 489/509
Salmonella TA104; [29]
  Rev/plate: 517/524
Salmonella TA104; TA104 +S9, Test 4, 2 µg/plate, zero-dose 482/455/462
  Rev/plate: 532/540
Salmonella TA104; TA104 +S9, Test 4, 5 µg/plate, zero-dose 482/455/462
  Rev/plate: 540/497
Salmonella TA104; TA104 +S9, Test 4, 10 µg/plate, zero-dose 482/455/462
  Rev/plate: 520/592
Salmonella TA104
  Mutagenic potency, Revertants/µg ± S.E., TA104: 58.9 ± 7.9 rev/µg
